In the supplement of paper PMC10883282:

Experiments:
Experiment in all cases: relative viability vs DMSO control (72 h) (fraction); higher = more viable cells
[1] = tested on: SW872
In short: (§1)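 Sarcoma cell lines went into 384-well plates at densities chosen to reach 80–90% confluence. After 24 h, each well received 2.5 µl of serially diluted compound, with source plates running from 10 mM to 0.0002 mM, and the plates were kept 72 h at 37 °C, 5% CO2, alongside 0.1% DMSO vehicle and a 5 µM positive control. Relative viability was derived from ATPLite readings as percent growth and averaged over up to triplicate wells. The data were then rescaled so that 1 stands for full and 0 for none.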

[2] = tested on: KHOS-240S
In short: as §1

[3] = tested on: SK-LMS-1
In short: as §1

[4] = tested on: SW1353
In short: as §1

[5] = tested on: RD-ES
In short: as §1

[6] = tested on: HT1080
In short: as §1

[7] = tested on: RD
In short: as §1

[8] = tested on: SYO-1
In short: as §1

[9] = tested on: G401
In short: as §1

[10] = tested on: HS729
In short: as §1

[11] = tested on: SW684
In short: as §1

[12] = tested on: KHOS-NP
In short: as §1

Cc1cn(-c2cc(NC(=O)c3ccc(C)c(Nc4nccc(-c5cccnc5)n4)c3)cc(C(F)(F)F)c2)cn1 [Nilotinib]
Conditions | relative viability
[1], 0.00017 µM | 0.959
[1], 0.00051 µM | 0.91
[1], 0.00152 µM | 0.924
[1], 0.00457 µM | 0.926
[1], 0.01372 µM | 0.948
[1], 0.04115 µM | 0.971
[1], 0.1235 µM | 1.01
[1], 0.3704 µM | 0.999
[1], 1.111 µM | 0.94
[1], 3.333 µM | 0.796
[1], 10 µM | 0.766
[2], 0.00017 µM | 1.04
[2], 0.00051 µM | 1.02
[2], 0.00152 µM | 1.03
[2], 0.00457 µM | 1.02
[2], 0.01372 µM | 1.03
[2], 0.04115 µM | 1.01
[2], 0.1235 µM | 0.999
[2], 0.3704 µM | 0.998
[2], 1.111 µM | 0.907
[2], 3.333 µM | 0.847
[2], 10 µM | 0.658
[3], 0.00017 µM | 0.953
[3], 0.00051 µM | 0.983
[3], 0.00152 µM | 1.01
[3], 0.00457 µM | 1.03
[3], 0.01372 µM | 1.02
[3], 0.04115 µM | 1.05
[3], 0.1235 µM | 1.11
[3], 0.3704 µM | 1.12
[3], 1.111 µM | 1.16
[3], 3.333 µM | 0.978
[3], 10 µM | 0.965
[4], 0.00017 µM | 0.933
[4], 0.00051 µM | 0.951
[4], 0.00152 µM | 0.935
[4], 0.00457 µM | 0.967
[4], 0.01372 µM | 0.969
[4], 0.04115 µM | 1.01
[4], 0.1235 µM | 1.05
[4], 0.3704 µM | 1.09
[4], 1.111 µM | 1.08
[4], 3.333 µM | 0.994
[4], 10 µM | 0.846
[5], 0.00017 µM | 0.934
[5], 0.00051 µM | 0.919
[5], 0.00152 µM | 0.927
[5], 0.00457 µM | 0.938
[5], 0.01372 µM | 0.925
[5], 0.04115 µM | 0.936
[5], 0.1235 µM | 0.912
[5], 0.3704 µM | 0.883
[5], 1.111 µM | 0.826
[5], 3.333 µM | 0.702
[5], 10 µM | 0.714
[6], 0.00017 µM | 1.02
[6], 0.00051 µM | 0.997
[6], 0.00152 µM | 0.964
[6], 0.00457 µM | 1.01
[6], 0.01372 µM | 1.04
[6], 0.04115 µM | 0.991
[6], 0.1235 µM | 1.03
[6], 0.3704 µM | 1
[6], 1.111 µM | 0.993
[6], 3.333 µM | 1.02
[6], 10 µM | 0.889
[7], 0.00017 µM | 1.06
[7], 0.00051 µM | 1.07
[7], 0.00152 µM | 1.09
[7], 0.00457 µM | 1.08
[7], 0.01372 µM | 1.11
[7], 0.04115 µM | 1.12
[7], 0.1235 µM | 1.11
[7], 0.3704 µM | 1.07
[7], 1.111 µM | 0.898
[7], 3.333 µM | 0.731
[7], 10 µM | 0.6531
[8], 0.00017 µM | 0.904
[8], 0.00051 µM | 0.868
[8], 0.00152 µM | 0.899
[8], 0.00457 µM | 0.865
[8], 0.01372 µM | 0.818
[8], 0.04115 µM | 0.84
[8], 0.1235 µM | 0.802
[8], 0.3704 µM | 0.6513
[8], 1.111 µM | 0.598
[8], 3.333 µM | 0.522
[8], 10 µM | 0.446
[9], 0.00017 µM | 0.944
[9], 0.00051 µM | 0.963
[9], 0.00152 µM | 0.968
[9], 0.00457 µM | 0.963
[9], 0.01372 µM | 0.979
[9], 0.04115 µM | 0.982
[9], 0.1235 µM | 0.995
[9], 0.3704 µM | 0.923
[9], 1.111 µM | 0.865
[9], 3.333 µM | 0.795
[9], 10 µM | 0.737
[10], 0.00017 µM | 0.914
[10], 0.00051 µM | 0.914
[10], 0.00152 µM | 0.92
[10], 0.00457 µM | 0.915
[10], 0.01372 µM | 0.922
[10], 0.04115 µM | 0.907
[10], 0.1235 µM | 0.848
[10], 0.3704 µM | 0.792
[10], 1.111 µM | 0.766
[10], 3.333 µM | 0.656
[10], 10 µM | 0.737
[11], 0.00017 µM | 1.04
[11], 0.00051 µM | 1.07
[11], 0.00152 µM | 1.09
[11], 0.00457 µM | 1.07
[11], 0.01372 µM | 1.07
[11], 0.04115 µM | 1.12
[11], 0.1235 µM | 1.21
[11], 0.3704 µM | 1.32
[11], 1.111 µM | 1.26
[11], 3.333 µM | 1.24
[11], 10 µM | 1.15
[12], 0.00017 µM | 1.038
[12], 0.00051 µM | 1.05
[12], 0.00152 µM | 1.04
[12], 0.00457 µM | 1.05
[12], 0.01372 µM | 1.02
[12], 0.04115 µM | 1.02
[12], 0.1235 µM | 1.044
[12], 0.3704 µM | 1.03
[12], 1.111 µM | 1.04
[12], 3.333 µM | 1.02
[12], 10 µM | 0.929
